From ChEMBL document CHEMBL4393743, “Anti-tumor activity evaluation of novel tubulin and HDAC dual-targeting inhibitors” (Bioorg Med Chem Lett, 2019)
Active and inactive are the calls of the source. The calls are words filed in the database; no cut-off is given here.

Legend:
[1] = system: LoVo; assay: Antiproliferative activity against human LoVo cells assessed as cell growth inhibition incubated for 72 hrs by MTT assay; assay type: functional, cell-based
[2] = system: A549; assay: Induction of apoptosis in human A549 cells assessed as live cells at 0.1 uM incubated for 72 hrs by Annexin V-FITC/propidium iodide-staining based flow cytometric analysis (reference value: 89.8%); assay type: functional
[3] = system: NCI-H226; assay: Antiproliferative activity against human NCI-H226 cells assessed as cell growth inhibition incubated for 72 hrs by MTT assay; assay type: functional, cell-based; conditions: NCI-H226, 72 h
[4] = target: T1, Protein deacetylase HDAC6 (Homo sapiens, UniProt Q9UBN7); assay: Inhibition of HDAC6 (unknown origin) using Boc-Lys(Ac)-AMC as substrate incubated for 60 mins by fluorescence assay
T1 sequence (Q9UBN7 whole entry): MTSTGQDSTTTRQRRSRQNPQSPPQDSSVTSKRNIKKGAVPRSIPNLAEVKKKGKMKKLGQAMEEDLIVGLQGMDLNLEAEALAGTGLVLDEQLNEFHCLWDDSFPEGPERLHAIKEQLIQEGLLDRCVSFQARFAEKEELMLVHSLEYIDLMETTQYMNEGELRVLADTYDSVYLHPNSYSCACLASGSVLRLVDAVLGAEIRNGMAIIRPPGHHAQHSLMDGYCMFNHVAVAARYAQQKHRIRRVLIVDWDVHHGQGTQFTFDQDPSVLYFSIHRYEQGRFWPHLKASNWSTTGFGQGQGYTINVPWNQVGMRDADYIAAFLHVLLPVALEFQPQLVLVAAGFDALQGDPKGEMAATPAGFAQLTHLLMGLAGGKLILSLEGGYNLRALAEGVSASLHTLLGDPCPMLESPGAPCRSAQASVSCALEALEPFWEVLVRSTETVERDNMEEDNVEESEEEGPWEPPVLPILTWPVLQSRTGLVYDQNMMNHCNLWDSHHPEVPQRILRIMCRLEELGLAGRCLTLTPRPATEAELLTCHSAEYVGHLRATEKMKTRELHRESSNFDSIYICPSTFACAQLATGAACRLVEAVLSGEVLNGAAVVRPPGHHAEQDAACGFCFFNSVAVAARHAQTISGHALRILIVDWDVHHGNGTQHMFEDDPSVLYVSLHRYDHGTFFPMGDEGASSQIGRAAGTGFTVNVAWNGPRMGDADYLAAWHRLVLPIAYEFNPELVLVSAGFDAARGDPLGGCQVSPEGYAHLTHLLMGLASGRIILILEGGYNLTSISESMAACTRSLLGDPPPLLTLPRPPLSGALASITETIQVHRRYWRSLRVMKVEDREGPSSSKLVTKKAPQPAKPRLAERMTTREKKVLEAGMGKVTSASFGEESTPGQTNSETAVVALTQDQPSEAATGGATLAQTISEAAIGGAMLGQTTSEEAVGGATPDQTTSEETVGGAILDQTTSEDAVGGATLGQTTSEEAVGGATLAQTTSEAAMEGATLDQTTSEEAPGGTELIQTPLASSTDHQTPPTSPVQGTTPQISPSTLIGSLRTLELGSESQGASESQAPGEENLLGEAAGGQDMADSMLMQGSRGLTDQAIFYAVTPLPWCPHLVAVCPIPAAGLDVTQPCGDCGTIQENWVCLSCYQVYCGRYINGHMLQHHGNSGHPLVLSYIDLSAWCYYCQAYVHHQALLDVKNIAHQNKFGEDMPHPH

[5] = system: HeLa; assay: Antiproliferative activity against human HeLa cells assessed as cell growth inhibition incubated for 72 hrs by MTT assay; assay type: functional, cell-based
[6] = system: A549; assay: Induction of apoptosis in human A549 cells assessed as late apoptotic cells at 0.1 uM incubated for 72 hrs by Annexin V-FITC/propidium iodide-staining based flow cytometric analysis (reference value: 5.69%); assay type: functional
[7] = system: A549; assay: Induction of apoptosis in human A549 cells assessed as live cells at 0.3 uM incubated for 72 hrs by Annexin V-FITC/propidium iodide-staining based flow cytometric analysis (reference value: 89.8%); assay type: functional
[8] = system: A549; assay: Induction of apoptosis in human A549 cells assessed as late apoptotic cells at 0.3 uM incubated for 72 hrs by Annexin V-FITC/propidium iodide-staining based flow cytometric analysis (reference value: 5.69%); assay type: functional
[9] = system: A549; assay: Induction of apoptosis in human A549 cells assessed as live cells at 1 uM incubated for 72 hrs by Annexin V-FITC/propidium iodide-staining based flow cytometric analysis (reference value: 89.8%); assay type: functional
[10] = system: A549; assay: Induction of apoptosis in human A549 cells assessed as early apoptotic cells at 1 uM incubated for 72 hrs by Annexin V-FITC/propidium iodide-staining based flow cytometric analysis (reference value: 1.8%); assay type: functional
[11] = system: A549; assay: Induction of apoptosis in human A549 cells assessed as necrotic cells at 1 uM incubated for 72 hrs by Annexin V-FITC/propidium iodide-staining based flow cytometric analysis (reference value: 2.76%); assay type: functional
[12] = system: A549; assay: Induction of apoptosis in human A549 cells assessed as late apoptotic cells at 10 uM incubated for 72 hrs by Annexin V-FITC/propidium iodide-staining based flow cytometric analysis (reference value: 5.69%); assay type: functional
[13] = system: A549; assay: Induction of apoptosis in human A549 cells incubated for 72 hrs by Annexin V-FITC/propidium iodide-staining based flow cytometric analysis; assay type: functional, cell-based
[14] = system: A549; assay: Induction of cell cycle arrest in human A549 cells assessed as accumulation at G0/G1 phase at 0.1 uM incubated for 36 hrs by propidium iodide staining based flow cytometry (reference value: 72.51%); assay type: functional
[15] = system: A549; assay: Induction of cell cycle arrest in human A549 cells assessed as accumulation at S phase at 0.3 uM incubated for 36 hrs by propidium iodide staining based flow cytometry (reference value: 16.66%); assay type: functional
[16] = system: A549; assay: Induction of cell cycle arrest in human A549 cells assessed as accumulation at G2/M phase at 0.3 uM incubated for 36 hrs by propidium iodide staining based flow cytometry (reference value: 10.83%); assay type: functional
[17] = system: A549; assay: Induction of cell cycle arrest in human A549 cells assessed as accumulation at S phase at 1 uM incubated for 36 hrs by propidium iodide staining based flow cytometry (reference value: 16.66%); assay type: functional
[18] = system: A549; assay: Induction of cell cycle arrest in human A549 cells assessed as accumulation at G0/G1 phase at 3 uM incubated for 36 hrs by propidium iodide staining based flow cytometry (reference value: 72.51%); assay type: functional
[19] = system: A549; assay: Induction of cell cycle arrest in human A549 cells assessed as accumulation at S phase at 3 uM incubated for 36 hrs by propidium iodide staining based flow cytometry (reference value: 16.66%); assay type: functional
[20] = system: A549; assay: Induction of cell cycle arrest in human A549 cells assessed as accumulation at G0/G1 phase at 10 uM incubated for 36 hrs by propidium iodide staining based flow cytometry (reference value: 72.51%); assay type: functional
[21] = system: A549; assay: Induction of cell cycle arrest in human A549 cells assessed as accumulation at G2/M phase at 10 uM incubated for 36 hrs by propidium iodide staining based flow cytometry (reference value: 10.83%); assay type: functional
[22] = system: A549; assay: Induction of cell cycle arrest in human A549 cells assessed as accumulation at G2/M phase incubated for 36 hrs by propidium iodide staining based flow cytometry; assay type: functional
[23] = system: A549; assay: Antimigratory activity in human A549 cells at 5 to 10 uM incubated for 12 hrs in presence of mitomycin by inverted microscopic-based wound healing assay; assay type: functional, cell-based

COc1ccc(/C=C(\C)C(=O)c2cc(OC)c(OC)c(OC)c2)cc1OCCCC(=O)NO
IC50 [1]: 4880 nM
Activity [2]: 84.8%
IC50 [3]: 7540 nM
IC50 [4]: 470 nM
IC50 [5]: 890 nM
Activity [6]: 9.41%
Activity [7]: 79.9%
Activity [8]: 10.1%
Activity [9]: 58.9%
Activity [10]: 6.6%
Activity [11]: 8.05%
Activity [12]: 28.5%
Activity [13]: Dose-dependent effect
Activity [14]: 68.44%
Activity [15]: 39.96%
Activity [16]: 13.81%
Activity [17]: 20.54%
Activity [18]: 9.13%
Activity [19]: 10.18%
Activity [20]: 1.57%
Activity [21]: 81.88%
Activity [22]: Dose-dependent effect
Activity [23]: Active
